Assay results as given in PMC6445123 (Scientific Reports, 2019).
Like-named read-outs stand apart in the source and are kept apart here.

Legend:
Casp6 = biological target: T1, Casp6 (Homo sapiens, UniProt P55212, INS179NQTEKLDTNITEVD); experiment: Reversibility of Casp6 inhibition (pre-incubation at 10-fold IC50, rapid 100-fold dilution); format: biochemical; conditions: recovery of activity after 60 min pre-incubation and 100-fold dilution
T1 construct: generating mainly large subunit with a linker (LS-L), small subunit (SS), and a minor amount of large subunit (LS); His (C); made in house; host or cells: E. coli BL21(DE3)pLysS
T1 sequence (P55212 24-193 limits assumed): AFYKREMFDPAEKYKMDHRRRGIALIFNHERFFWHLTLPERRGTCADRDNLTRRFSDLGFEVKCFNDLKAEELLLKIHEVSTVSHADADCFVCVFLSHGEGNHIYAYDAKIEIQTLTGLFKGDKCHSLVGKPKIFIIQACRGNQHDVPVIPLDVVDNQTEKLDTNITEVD
T1 sequence (P55212 194-293 limits assumed): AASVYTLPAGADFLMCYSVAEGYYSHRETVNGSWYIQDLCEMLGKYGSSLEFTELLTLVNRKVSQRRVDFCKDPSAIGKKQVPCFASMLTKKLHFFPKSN
Procedure: Supplementary Figure S5. Mechanism of Casp6 inhibition with C13 and S10G. (a) Inhibition of Casp6 with C13 (left panel) and S10G (right panel) is reversible. The recovery of Casp6 activity after 60 min pre-incubation with C13 and S10G at a concentration of inhibitor equal to 10-fold the IC50 value followed by a rapid 100-fold […]
(1 picture or pasted object on this page, not shown here) […]
dilution into Casp6 activity assay solution. The control samples DMSO and Q-VD-OPh were pre-incubated and diluted in the absence of inhibitor, and in the presence of an irreversible inhibitor Q-VD-OPh, respectively. Data points represent mean ± standard error of the mean (SEM) from three independent experiments. (b) Coomassie stain of SDS-PAGE of purified recombinant WT -, L200A-, and K284A-Casp6 (left panel) expressed from a full -length Casp6 encoding construct (Fig. 1c ), and copurified LS and SS of WT -, L200A-, and K284A-LS-SS-Casp6 (right panel). FL (full-length Casp6), ΔCasp6 (Casp6 without a prodomain), LS-L (large subunit with linker), LS (large subunit), and SS (small subunit) depict different bands of Casp6. (c) Michaelis-Menten kinetic plots (top panel) and calculated KM and Vmax values (bottom panel) for Casp6-WT-LS-SS (left panel), Casp6-L200A-LS-SS (middle panel), and Casp6-K284A-LS-SS (right panel) enzymatic activity in presence of 1% DMSO (0 µM C13) or increasing doses of C13. […]

[1] = biological target: T2, recombinant active Casp6 (Casp6-WT) (Homo sapiens, UniProt P55212, INS179NQTEKLDTNITEVD); experiment: Fluorescence-based Ac-VEID-AFC cleavage assay (Casp6 activity, IC50 determination); format: biochemical
T2 construct: generating mainly large subunit with a linker (LS-L), small subunit (SS), and a minor amount of large subunit (LS); His (C); made in house; host or cells: E. coli BL21(DE3)pLysS
T2 sequence (P55212 24-193 limits assumed): T1 sequence (P55212 24-193 limits assumed)
T2 sequence (P55212 194-293 limits assumed): T1 sequence (P55212 194-293 limits assumed)
Procedure: To assess the potency of in silico hits, a fluorescence-based Ac-VEID-AFC cleavage assay was used to measure recombinant active Casp6 reaction rate in the absence or presence of 100 µM concentration of compounds. A 30% inhibition cut off was arbitrarily chosen for further investigation of putative inhibitors. […] AFC signal interference by compound intrinsic fluorescence was ruled out (Fig. S4). Casp6 inhibition was confirmed for seven compounds (C7, C13, C14, S2, S10, S11 and S13) using a colorimetric Ac-VEID-pNA cleavage assay (Table 2, Fig. S3).
Casp6 active sites were quantified using zVAD-FMK (N-benzyloxycarbonyl-Val-Ala-Asp-(O-methyl)-fluoromethylketone, MP Biomedicals, Santa Ana, CA, USA)[51],[64]. Casp6 activity was measured in Stennicke’s buffer (SB: 20 mM piperazine-N,N′-bis-(2-ethanesulfonic acid) pH 7.2, 100 mM NaCl, 10 mM DTT, 1 mM EDTA, 0.1% 3-[(3-cholamidopropyl)-dimethylammonio]-2-hydroxy-1-propanesulfonic acid, 10% sucrose)[65] using 40 µM Ac-VEID-AFC (Ac-Val-Glu-Ile-Asp-7-Amino-4-trifluoromethylcoumarin, Enzo Life Sciences, Farmingdale, NY, USA)[64] and 10-250 nM active site titrated Casp6. Reactions were initiated by Ac-VEID-AFC addition and followed for 20 min at 37 °C in a black clear bottom 96-well microplate (Costar, Corning, NY, USA) in Synergy H4 Hybrid instrument (BioTek, Winooski, VT, USA) with excitation/emission at 380/505 nm. Released AFC was calculated from AFC standard curve (0-25 µM). Casp6 VEIDase activity (released pmol AFC/min) was calculated from the initial linear reaction part. Ac-VEID-AFC hydrolysis initial velocities were measured with 10 nM active-site titrated Casp6 and […] Ac-VEID-AFC. Initial velocities v versus substrate concentration [S] were fit to a rectangular hyperbola using Michaelis-Menten equation in GraphPad Prism 5 (GraphPad Software, La Jolla, CA, USA).
In fluorescence-based Casp6 activity assay, 10 µM Ac-VEID-AFC was added to 20 nM Casp6 in SB with 100 μM compound and 1% dimethyl sulfoxide (DMSO), and reaction rate was measured for 20 min at 37 °C as above. Compound potency was calculated by normalising Ac-VEID-AFC cleavage rate to 1% DMSO control. In colorimetric Casp6 activity assay, 200 µM Ac-VEID-pNA (N-acetyl-Val-Glu-Ile-Asp-p-nitroanilide, Enzo Life Sciences) was added to 200 nM Casp6 in SB with 100 μM compound, and Ac-VEID-pNA cleavage rate was measured at 37 °C for 30 min in clear 96-well plate (Sartstedt, Nümbrecht, Germany) using Synergy H4 plate reader at 405 nm. Absorbance was converted to the released pNA amount based on a standard curve of 0–250 µM pNA. Cleavage rates were calculated from the linear assay phase and were normalised to 1% DMSO control. In Casp6-C163A cleavage assay, 0.5 ng/µl Casp6-WT was preincubated with 100 µM inhibitor, 5 µM Q-VD-OPh or 1% DMSO in SB (30 min, RT), followed by transfer on ice, addition of 0.5 µg/µl Casp6-C163A, and incubation (37 °C, 5, 10 and 15 min). Reactions were stopped by adding SDS-PAGE sample buffer (62.5 mM Tris pH 6.8, 2% SDS, 0.1 M DTT, 0.01% Bromphenol Blue, 10% glycerol) and heating (5 min, 95 °C). Samples (2 µl) were analysed on 15% SDS-PAGE gels, proteins were stained with Coomassie blue, and gels were de-stained with 10% acetic acid. The intensities of protein bands were quantified from scanned gels using ImageJ. The band intensity of Casp6-C163A without a prodomain was plotted against the time and the Casp6-C163A cleavage rates were calculated from the slopes of linear plots. The % activity of Casp6-WT in the presence of inhibitors was calculated relative to DMSO control.
IC50 values were determined against 20 nM Casp6 active sites in fluorescence-based Casp6 activity assay with 10 µM Ac-VEID-AFC and 1 nM-500 µM inhibitor. IC50 was calculated with GraphPad Prism 5 by a nonlinear regression fit for log inhibitor vs relative Casp6 activity (% DMSO control) using a Hill slope of – 1, and top and bottom constraints of 100 and 0, respectively.

## COC(=O)c1cc(CNC(=O)C2Cc3ccccc3O2)cc(NC(=O)c2ccco2)c1 (centres unmarked) [Compound C13]
Casp6
  reversibility of Casp6 inhibition: reversible
[1]; 100 µM compound, 10 µM Ac-VEID-AFC, 20 nM Casp6, relative to 1% DMSO control
  inhibition at 100 µM: 57.1 ± 4.7%
[1]; Casp6-WT, compared with Casp6-K284A, read-out: IC50 of C13 for Casp6-WT (Fig. 4f)
  IC50: 17.2 ± 3.6 µM
[1]; fluorescence assay, 20 nM Casp6 active sites, 10 µM Ac-VEID-AFC, read-out: IC50
  IC50: 13.2 ± 2.5 µM
[1]; synthesised in the authors' laboratory vs commercial source
  potency for Casp6 of in-house synthesised compound compared to commercial compound: lower potency
